The values below come from patent US10245261B2, “Substituted indol-5-ol derivatives and their therapeutic applications” (NantBioScience, Inc., priority 2013, dated 2019).

As usually defined, the inhibition is the drop in the measured response relative to a control, in per cent.

Common to all, as to assay: KinaseProfiler kinase assay
For one test, the target named is IR(h), activated (Homo sapiens, UniProt P06213). The format is biochemical.
For a further test, the target named is CDK5/p25(h) (Homo sapiens, UniProt Q00535). The format is biochemical.
CDK5/p25(h), sequence (Q00535 whole entry): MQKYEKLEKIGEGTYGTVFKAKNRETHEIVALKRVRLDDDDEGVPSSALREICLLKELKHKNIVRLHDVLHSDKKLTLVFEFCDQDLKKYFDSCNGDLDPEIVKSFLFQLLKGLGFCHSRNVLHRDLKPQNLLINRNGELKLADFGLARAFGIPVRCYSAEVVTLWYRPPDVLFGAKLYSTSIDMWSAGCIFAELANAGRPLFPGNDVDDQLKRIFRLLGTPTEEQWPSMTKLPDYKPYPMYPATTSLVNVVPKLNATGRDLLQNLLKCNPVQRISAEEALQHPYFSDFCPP
CDK5/p25(h), sequence (Q15078 99-307 partner): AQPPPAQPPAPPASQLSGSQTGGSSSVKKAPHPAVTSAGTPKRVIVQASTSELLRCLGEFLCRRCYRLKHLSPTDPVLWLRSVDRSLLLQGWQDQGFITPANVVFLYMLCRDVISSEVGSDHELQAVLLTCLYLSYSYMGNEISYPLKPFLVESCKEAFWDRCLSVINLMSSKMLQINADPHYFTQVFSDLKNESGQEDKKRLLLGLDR
The next test addresses PIP5K1γ(h) (Homo sapiens, UniProt O60331). In kind it is biochemical.
The target of the next test is BRK(h) (Homo sapiens, UniProt Q13882). The format is biochemical.
In a further test the target is mTOR(h) (Homo sapiens, UniProt P42345). The format is biochemical.
In a further test the target is JNK2α2(h) (Homo sapiens, UniProt P45984). In kind it is biochemical.
Another test deals with CLK2(h) (Homo sapiens, UniProt P49760). In kind it is biochemical.
CLK2(h), sequence (P49760 whole entry): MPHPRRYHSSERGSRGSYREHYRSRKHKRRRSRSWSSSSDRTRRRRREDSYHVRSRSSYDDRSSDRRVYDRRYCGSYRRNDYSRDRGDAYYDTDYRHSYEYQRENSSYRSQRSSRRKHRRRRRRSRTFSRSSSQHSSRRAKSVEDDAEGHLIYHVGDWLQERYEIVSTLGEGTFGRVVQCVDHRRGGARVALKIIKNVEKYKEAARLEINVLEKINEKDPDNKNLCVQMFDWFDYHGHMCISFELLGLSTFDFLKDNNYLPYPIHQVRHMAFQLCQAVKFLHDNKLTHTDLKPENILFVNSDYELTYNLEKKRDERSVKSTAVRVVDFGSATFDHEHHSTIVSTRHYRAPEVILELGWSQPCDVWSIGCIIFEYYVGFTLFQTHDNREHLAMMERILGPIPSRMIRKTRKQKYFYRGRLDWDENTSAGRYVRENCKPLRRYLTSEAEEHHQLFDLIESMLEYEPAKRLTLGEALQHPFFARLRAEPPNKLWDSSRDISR
For test [1], the target named is PI3 Kinase (p110β/p85α)(h) (Homo sapiens, UniProt P42338). In kind it is biochemical.
In the next test the target is MEK1(h) (Homo sapiens, UniProt Q02750). The format is biochemical. In short, it runs like this: (§1)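 Buffer 20 mM MOPS, 1 mM EDTA, 0.01% Brij-35, 5% glycerol, 0.1% β-mercaptoethanol, 1 mg/mL BSA for compound dilution; reaction at pH 7.0 with [γ-33P]ATP, 40 min RT; filtermat/scintillation read-out; 0%/100% set by no-kinase and phosphopeptide wells.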
MEK1(h), sequence (Q02750 whole entry): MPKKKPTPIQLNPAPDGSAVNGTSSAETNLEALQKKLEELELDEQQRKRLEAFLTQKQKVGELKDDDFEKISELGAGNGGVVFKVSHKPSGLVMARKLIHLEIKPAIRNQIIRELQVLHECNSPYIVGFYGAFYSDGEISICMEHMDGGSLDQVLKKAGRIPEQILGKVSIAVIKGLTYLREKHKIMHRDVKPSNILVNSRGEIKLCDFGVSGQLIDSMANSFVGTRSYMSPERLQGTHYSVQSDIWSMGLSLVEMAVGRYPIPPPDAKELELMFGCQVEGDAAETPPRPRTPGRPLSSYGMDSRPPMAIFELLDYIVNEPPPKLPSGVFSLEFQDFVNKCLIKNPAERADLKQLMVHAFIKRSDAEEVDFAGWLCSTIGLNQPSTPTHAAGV
For the next test, the target named is T1, Src(1-530)(h) (Homo sapiens, UniProt P12931).
T1 construct: Src(1-530)(h)
T1 sequence (P12931 1-530): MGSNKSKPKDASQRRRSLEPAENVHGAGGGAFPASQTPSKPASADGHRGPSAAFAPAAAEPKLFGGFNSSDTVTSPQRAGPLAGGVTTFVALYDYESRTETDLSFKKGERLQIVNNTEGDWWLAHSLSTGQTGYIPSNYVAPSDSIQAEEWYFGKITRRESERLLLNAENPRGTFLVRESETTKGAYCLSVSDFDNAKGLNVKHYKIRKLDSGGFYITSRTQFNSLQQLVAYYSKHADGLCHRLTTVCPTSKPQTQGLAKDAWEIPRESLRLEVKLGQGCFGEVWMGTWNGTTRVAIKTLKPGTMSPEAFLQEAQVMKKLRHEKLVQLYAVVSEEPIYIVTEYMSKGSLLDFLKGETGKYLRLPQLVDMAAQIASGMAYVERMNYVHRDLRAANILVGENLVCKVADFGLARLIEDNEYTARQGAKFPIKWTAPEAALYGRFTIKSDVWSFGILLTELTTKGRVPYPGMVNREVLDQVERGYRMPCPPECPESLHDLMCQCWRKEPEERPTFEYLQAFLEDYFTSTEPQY
The format is biochemical. In short, it runs like this:
as §1

A further test has as its target CK1γ2(h) (Homo sapiens, UniProt P78368). The format is biochemical. Put shortly:
as §1

A further test deals with Blk(h) (Homo sapiens, UniProt P51451). In kind it is biochemical. Put shortly: as §1
Blk(h), sequence (P51451 whole entry): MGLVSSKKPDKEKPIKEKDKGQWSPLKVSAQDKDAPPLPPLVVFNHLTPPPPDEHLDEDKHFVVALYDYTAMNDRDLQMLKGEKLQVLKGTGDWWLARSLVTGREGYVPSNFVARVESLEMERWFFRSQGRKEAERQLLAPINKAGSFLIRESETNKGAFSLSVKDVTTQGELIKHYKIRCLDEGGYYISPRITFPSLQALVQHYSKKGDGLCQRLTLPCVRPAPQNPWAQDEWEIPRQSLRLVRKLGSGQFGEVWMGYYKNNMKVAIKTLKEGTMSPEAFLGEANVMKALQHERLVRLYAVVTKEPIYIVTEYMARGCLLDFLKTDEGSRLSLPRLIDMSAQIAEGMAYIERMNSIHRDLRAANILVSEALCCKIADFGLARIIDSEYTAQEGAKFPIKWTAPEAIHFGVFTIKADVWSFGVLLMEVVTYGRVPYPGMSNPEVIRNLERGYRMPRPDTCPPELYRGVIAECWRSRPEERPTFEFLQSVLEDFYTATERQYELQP
In another test the target is MST2(h) (Homo sapiens, UniProt Q13188). In kind it is biochemical. Put shortly: as §1
MST2(h), sequence (Q13188 whole entry): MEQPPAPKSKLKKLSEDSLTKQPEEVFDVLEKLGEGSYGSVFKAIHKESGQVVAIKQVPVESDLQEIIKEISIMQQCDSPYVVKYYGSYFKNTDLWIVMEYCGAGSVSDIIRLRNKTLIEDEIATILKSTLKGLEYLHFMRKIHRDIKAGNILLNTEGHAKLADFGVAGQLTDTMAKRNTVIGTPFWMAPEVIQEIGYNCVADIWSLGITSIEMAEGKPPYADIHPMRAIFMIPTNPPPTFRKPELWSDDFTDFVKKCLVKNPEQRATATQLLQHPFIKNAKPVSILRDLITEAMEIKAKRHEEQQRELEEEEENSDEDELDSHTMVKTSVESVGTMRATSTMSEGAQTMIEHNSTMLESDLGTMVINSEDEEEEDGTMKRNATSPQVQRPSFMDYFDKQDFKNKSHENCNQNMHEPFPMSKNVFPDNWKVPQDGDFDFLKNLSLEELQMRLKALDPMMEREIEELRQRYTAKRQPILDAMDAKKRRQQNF
In another test the target is GSK3α(h) (Homo sapiens, UniProt P49840). In kind it is biochemical.
GSK3α(h), sequence (P49840 whole entry): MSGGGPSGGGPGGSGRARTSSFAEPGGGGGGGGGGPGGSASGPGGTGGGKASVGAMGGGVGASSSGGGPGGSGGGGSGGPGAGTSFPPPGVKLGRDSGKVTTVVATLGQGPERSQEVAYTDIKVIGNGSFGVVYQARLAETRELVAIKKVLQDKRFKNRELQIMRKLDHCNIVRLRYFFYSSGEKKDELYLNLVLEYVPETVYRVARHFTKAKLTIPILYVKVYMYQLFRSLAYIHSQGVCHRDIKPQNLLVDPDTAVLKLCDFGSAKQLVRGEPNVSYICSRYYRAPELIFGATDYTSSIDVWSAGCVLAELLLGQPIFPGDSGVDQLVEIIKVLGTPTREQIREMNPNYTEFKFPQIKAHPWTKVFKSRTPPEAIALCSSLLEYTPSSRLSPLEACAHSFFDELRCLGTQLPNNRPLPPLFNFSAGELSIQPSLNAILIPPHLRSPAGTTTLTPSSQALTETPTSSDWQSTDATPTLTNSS
In another test the target is CHK2(R145W)(h) (Homo sapiens, UniProt O96017, R145W). In kind it is biochemical.
A further test concerns the target GCK(h) (Homo sapiens, UniProt Q12851). The format is biochemical.
Another test has as its target CaMKIIδ(h) (Homo sapiens, UniProt Q13557). In kind it is biochemical.
The target in the next test is PI3KC2α(h) (Homo sapiens, UniProt O00443). The format is biochemical.
In the next test the test system is CK1(y). In kind it is biochemical, yeast.

GCK(h), sequence (Q12851 whole entry): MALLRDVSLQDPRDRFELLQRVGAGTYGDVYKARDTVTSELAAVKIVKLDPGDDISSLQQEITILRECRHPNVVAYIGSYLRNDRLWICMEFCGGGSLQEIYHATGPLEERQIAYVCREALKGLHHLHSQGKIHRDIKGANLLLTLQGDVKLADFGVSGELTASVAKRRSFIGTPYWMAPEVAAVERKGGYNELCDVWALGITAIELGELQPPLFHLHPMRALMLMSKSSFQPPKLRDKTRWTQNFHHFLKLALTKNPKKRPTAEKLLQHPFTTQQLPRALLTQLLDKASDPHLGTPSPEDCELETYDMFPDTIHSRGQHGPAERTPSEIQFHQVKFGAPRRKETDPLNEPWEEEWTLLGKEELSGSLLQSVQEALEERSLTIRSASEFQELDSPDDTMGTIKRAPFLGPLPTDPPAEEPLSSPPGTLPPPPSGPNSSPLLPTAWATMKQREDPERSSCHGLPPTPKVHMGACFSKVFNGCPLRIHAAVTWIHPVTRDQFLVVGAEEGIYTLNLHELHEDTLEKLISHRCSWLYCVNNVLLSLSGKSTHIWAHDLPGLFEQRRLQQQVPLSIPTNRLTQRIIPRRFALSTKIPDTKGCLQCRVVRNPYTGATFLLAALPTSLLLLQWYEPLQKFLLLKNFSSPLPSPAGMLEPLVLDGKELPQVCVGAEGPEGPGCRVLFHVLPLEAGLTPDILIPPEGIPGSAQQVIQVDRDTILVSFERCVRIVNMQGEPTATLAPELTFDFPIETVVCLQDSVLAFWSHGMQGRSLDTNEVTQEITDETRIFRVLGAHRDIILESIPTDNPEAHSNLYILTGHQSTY
IR(h), activated, sequence (P06213 1005-1310): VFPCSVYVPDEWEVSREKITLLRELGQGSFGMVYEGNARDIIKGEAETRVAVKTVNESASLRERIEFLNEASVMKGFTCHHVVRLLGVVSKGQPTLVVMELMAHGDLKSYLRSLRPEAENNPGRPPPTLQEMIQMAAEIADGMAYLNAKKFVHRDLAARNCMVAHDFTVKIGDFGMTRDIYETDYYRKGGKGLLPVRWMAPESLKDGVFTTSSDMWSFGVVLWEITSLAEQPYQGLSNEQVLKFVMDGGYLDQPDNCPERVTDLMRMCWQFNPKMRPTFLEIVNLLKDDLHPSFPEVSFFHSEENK
CK1γ2(h), sequence (P78368 whole entry): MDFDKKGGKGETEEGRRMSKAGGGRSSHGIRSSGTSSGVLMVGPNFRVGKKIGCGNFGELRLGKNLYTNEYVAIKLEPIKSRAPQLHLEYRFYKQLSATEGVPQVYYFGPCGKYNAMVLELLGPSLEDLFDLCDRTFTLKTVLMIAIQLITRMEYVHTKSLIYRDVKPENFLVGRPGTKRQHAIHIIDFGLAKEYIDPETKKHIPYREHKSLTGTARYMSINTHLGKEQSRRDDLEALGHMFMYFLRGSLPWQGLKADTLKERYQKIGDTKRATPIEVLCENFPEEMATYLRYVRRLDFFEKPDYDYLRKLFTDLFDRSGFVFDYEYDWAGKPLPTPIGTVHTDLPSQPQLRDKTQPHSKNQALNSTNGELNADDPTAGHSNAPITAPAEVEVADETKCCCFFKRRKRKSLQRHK

`Cc1cc2c(F)c(Oc3nc(Nc4cc(C5CC5)[nH]n4)cc(N4CCN(C)CC4)n3)ccc2[nH]1` [Compound 10]: the inhibition at 0.1 µM was 73% against IR(h), activated; 24% on CDK5/p25(h); -8% at PIP5K1γ(h); 54% on BRK(h); 25% against mTOR(h); -20% at JNK2α2(h). The inhibition at 0.1 µM against CLK2(h) is 29%; in [1], 0%; on MEK1(h) it was 14%; on Src(1-530)(h), 101%; against CK1γ2(h) it was -20%; at Blk(h), 94%. For the same compound, the inhibition at 0.1 µM was 24% on MST2(h); 28% on GSK3α(h); 22% against CHK2(R145W)(h); 79% against GCK(h); -6% at CaMKIIδ(h); 15% against PI3KC2α(h). Further, the “% inhibition @ 0.1 μM” value in the test with CK1(y) is on record as 17%.
As for `Cc1cc2c(F)c(Oc3nc(Nc4cc(C5CC5)[nH]n4)cc(N4CCNCC4)n3)ccc2[nH]1` [Compound 11, N-(5-cyclopropyl-1H-pyrazol-3-yl)-2-((4-fluoro-2-methyl-1H-indol-5-yl)oxy)-6-(piperazin-1-yl)pyrimidin-4-amine], the inhibition at 0.1 µM was 71% against IR(h), activated; 26% against CDK5/p25(h); -5% on PIP5K1γ(h); 73% against BRK(h); 18% on mTOR(h); -16% against JNK2α2(h). The inhibition at 0.1 µM at CLK2(h) was -3%; in [1], -1%; at MEK1(h), 1%; at Src(1-530)(h), 101%; on CK1γ2(h) it was -16%; at Blk(h) it was 94%. For the same compound, the inhibition at 0.1 µM against MST2(h) is 22%; against GSK3α(h), 20%; against CHK2(R145W)(h) it was 6%; against GCK(h), 85%; at CaMKIIδ(h) it was 6%; on PI3KC2α(h), -5%. Also, in the test on CK1(y), the “% inhibition @ 0.1 μM” value is given as 4%.
